# Test results taken from paper PMC10404671, “Deciphering the biosynthesis of a novel lipid in Mycobacterium tuberculosis expands the known roles of the nitroreductase superfamily” (The Journal of Biological Chemistry, 2023).
# Key:
# [1] = biological target: T1, TyzB (Mycobacterium tuberculosis, UniProt P95234)
# T1 construct: gene moeW
# [2] = biological target: T2, TyzA (Mycobacterium tuberculosis, UniProt P95232)
# T2 construct: gene Rv2336
# [3] = biological target: T3, TyzC (Mycobacterium tuberculosis, UniProt P95233)
# T3 construct: gene Rv2337c
# T3 sequence (P95233 entry or part of it): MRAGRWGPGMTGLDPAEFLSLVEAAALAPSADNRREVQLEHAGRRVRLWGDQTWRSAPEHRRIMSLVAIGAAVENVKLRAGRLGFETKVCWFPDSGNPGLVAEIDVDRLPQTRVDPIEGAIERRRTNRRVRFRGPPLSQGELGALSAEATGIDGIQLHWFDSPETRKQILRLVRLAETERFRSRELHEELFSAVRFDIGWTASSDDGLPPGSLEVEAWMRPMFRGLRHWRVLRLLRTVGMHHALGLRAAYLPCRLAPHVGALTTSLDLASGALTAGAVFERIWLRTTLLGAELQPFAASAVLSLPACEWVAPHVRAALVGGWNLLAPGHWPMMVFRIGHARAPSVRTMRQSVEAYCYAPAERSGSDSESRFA
# T2 sequence (P95232 entry or part of it): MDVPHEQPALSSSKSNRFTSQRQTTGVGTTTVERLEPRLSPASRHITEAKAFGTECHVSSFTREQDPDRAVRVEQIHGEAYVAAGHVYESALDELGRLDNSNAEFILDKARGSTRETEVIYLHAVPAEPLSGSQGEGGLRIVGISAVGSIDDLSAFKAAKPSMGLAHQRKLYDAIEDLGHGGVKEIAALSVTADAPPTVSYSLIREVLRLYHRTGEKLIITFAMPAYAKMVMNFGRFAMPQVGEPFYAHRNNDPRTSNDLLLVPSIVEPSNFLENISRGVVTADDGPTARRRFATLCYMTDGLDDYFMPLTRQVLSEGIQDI
# T1 sequence (P95234 entry or part of it): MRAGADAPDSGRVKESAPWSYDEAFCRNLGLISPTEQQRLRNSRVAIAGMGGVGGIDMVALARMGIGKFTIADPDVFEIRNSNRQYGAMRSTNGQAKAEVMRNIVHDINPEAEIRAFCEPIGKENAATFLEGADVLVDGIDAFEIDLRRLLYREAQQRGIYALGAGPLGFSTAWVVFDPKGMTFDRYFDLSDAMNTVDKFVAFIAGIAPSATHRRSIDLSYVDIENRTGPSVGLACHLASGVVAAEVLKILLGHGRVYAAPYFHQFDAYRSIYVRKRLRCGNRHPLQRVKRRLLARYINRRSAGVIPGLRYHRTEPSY
smiles,measurement,setting,value
Nc1ncnc2c1ncn2[C@@H]1O[C@H](COP(=O)(O)OP(=O)(O)OP(=O)(O)O)[C@@H](O)[C@H]1O [ATP],"LC-QTOF endpoint assay, purified TyzA plus RHA1 pTip-TyzBC lysate",[1],"performed ATP-dependent cyclization and O2-dependent desaturation of C12:0-L-Tyr, respectively"
CCCCCCCCCCCC(=O)SCCNC(=O)CCNC(=O)[C@H](O)C(C)(C)COP(=O)(O)OP(=O)(O)OC[C@H]1O[C@@H](n2cnc3c(N)ncnc32)[C@H](O)[C@@H]1OP(=O)(O)O [C12:0-CoA],KiS,[2],450 ± 90 µM
CCCCCCCCCCCC(=O)N[C@@H](Cc1ccc(O)cc1)C(=O)O [C12:0-L-Tyr],"LC-QTOF endpoint assay, purified TyzA plus RHA1 pTip-TyzBC lysate",[3],"performed ATP-dependent cyclization and O2-dependent desaturation of C12:0-L-Tyr, respectively"
